# Laboratory results from US20250186405A1, “Compound For Use In Treating Narcolepsy” (Alkermes, Inc., priority 2023, published 2025).
# Test system: subjects with narcolepsy type-1 (NT1)
# Assay: Part 4 POC NT1: treatment-emergent adverse events, single doses, crossover
# Type: in vivo, human
# Method: Subjects were randomized to 1 of 4 sequences.
# Each subject received three doses of Compound A, including 1, 3, and 8 mg, and a single dose of placebo. […] All subjects underwent the washout period and completed all 4-way randomized crossover periods.
# With one exception, each subject received three doses of Compound A, including 1, 3, and 8 mg, and a single dose of placebo. One patient withdrew from the study after the first dose due to venous access complications. […] With the exception of one patient as noted above, all subjects underwent the washout period and completed all 4-way randomized crossover periods.
smiles,measurement,setting,value
"CS(=O)(=O)N[C@H]1CCCN2C(=O)COc3ccccc3C3CCC(CC3)OCC12 (stereo partly drawn) [Compound A, N-[(4S,4aR,7α,10α)-1,2,3,4,4a,5,7,8,9,10,16,17-dodecahydro-17-oxo-7,10-ethanopyrido[1,2-d][1,7,4]benzodioxaazacyclotridecin-4-yl]methanesulfonamide]",AE Leading to Study Drug Discontinuation,1 mg (N = 4),0 n (%)
same,Any SAEs,1 mg (N = 4),0 n (%)
same,Any TEAE,1 mg (N = 4),1 (25.0) n (%)
same,Death,1 mg (N = 4),0 n (%)
same,TEAE Anaemia,1 mg (N = 4),0 n (%)
same,TEAE Application site dermatitis,1 mg (N = 4),1 (25.0) n (%)
same,TEAE Blood pressure increased,1 mg (N = 4),0 n (%)
same,TEAE Bruxism,1 mg (N = 4),0 n (%)
same,TEAE Dermatitis contact,1 mg (N = 4),0 n (%)
same,TEAE Dizziness,1 mg (N = 4),0 n (%)
same,TEAE Hyperhidrosis,1 mg (N = 4),0 n (%)
same,TEAE Hyperlipidaemia,1 mg (N = 4),0 n (%)
same,TEAE Insomnia,1 mg (N = 4),0 n (%)
same,TEAE Pollakiuria,1 mg (N = 4),0 n (%)
same,TEAE Procedural anxiety,1 mg (N = 4),0 n (%)
same,TEAE Salivary hypersecretion,1 mg (N = 4),0 n (%)
same,TEAE Vascular access site injury,1 mg (N = 4),0 n (%)
same,TEAE Vessel puncture site bruise,1 mg (N = 4),0 n (%)
same,TEAE by Highest Relationship: Not Related,1 mg (N = 4),1 (25.0) n (%)
same,TEAE by Highest Relationship: Related,1 mg (N = 4),0 n (%)
same,TEAE by Highest Severity: Mild,1 mg (N = 4),1 (25.0) n (%)
same,TEAE by Highest Severity: Moderate,1 mg (N = 4),0 n (%)
same,TEAE by Highest Severity: Severe,1 mg (N = 4),0 n (%)
same,AE Leading to Study Drug Discontinuation,1 mg (N = 9),0 n (%)
same,Any SAEs,1 mg (N = 9),0 n (%)
same,Any TEAE,1 mg (N = 9),6 (66.7) n (%)
same,Death,1 mg (N = 9),0 n (%)
same,TEAE Anaemia,1 mg (N = 9),0 n (%)
same,TEAE Application site dermatitis,1 mg (N = 9),1 (11.1) n (%)
same,TEAE Back pain,1 mg (N = 9),0 n (%)
same,TEAE Blood pressure increased,1 mg (N = 9),0 n (%)
same,TEAE Bruxism,1 mg (N = 9),0 n (%)
same,TEAE Decreased appetite,1 mg (N = 9),1 (11.1) n (%)
same,TEAE Dehydration,1 mg (N = 9),1 (11.1) n (%)
same,TEAE Dermatitis contact,1 mg (N = 9),0 n (%)
same,TEAE Dizziness,1 mg (N = 9),1 (11.1) n (%)
same,TEAE Haemoglobin decreased,1 mg (N = 9),0 n (%)
same,TEAE Headache,1 mg (N = 9),0 n (%)
same,TEAE Hyperhidrosis,1 mg (N = 9),0 n (%)
same,TEAE Hyperlipdaemia,1 mg (N = 9),0 n (%)
same,TEAE Insomnia,1 mg (N = 9),0 n (%)
same,TEAE Middle Insomnia,1 mg (N = 9),0 n (%)
same,TEAE Nausea,1 mg (N = 9),2 (22.2) n (%)
same,TEAE Pollakiuria,1 mg (N = 9),0 n (%)
same,TEAE Salivary hypersecretion,1 mg (N = 9),1 (11.1) n (%)
same,TEAE Sinus tachycardia,1 mg (N = 9),1 (11.1) n (%)
same,TEAE Vascular access site injury,1 mg (N = 9),0 n (%)
same,TEAE Vessel puncture site bruise,1 mg (N = 9),0 n (%)
same,TEAE Vessel puncture site pain,1 mg (N = 9),0 n (%)
same,TEAE by Highest Relationship: Not Related,1 mg (N = 9),1 (11.1) n (%)
same,TEAE by Highest Relationship: Related,1 mg (N = 9),5 (55.6) n (%)
same,TEAE by Highest Severity: Mild,1 mg (N = 9),6 (66.7) n (%)
same,TEAE by Highest Severity: Moderate,1 mg (N = 9),0 n (%)
same,TEAE by Highest Severity: Severe,1 mg (N = 9),0 n (%)
same,AE Leading to Study Drug Discontinuation,3 mg (N = 4),0 n (%)
same,Any SAEs,3 mg (N = 4),0 n (%)
same,Any TEAE,3 mg (N = 4),2 (50.0) n (%)
same,Death,3 mg (N = 4),0 n (%)
same,TEAE Anaemia,3 mg (N = 4),0 n (%)
same,TEAE Application site dermatitis,3 mg (N = 4),0 n (%)
same,TEAE Blood pressure increased,3 mg (N = 4),0 n (%)
same,TEAE Bruxism,3 mg (N = 4),0 n (%)
same,TEAE Dermatitis contact,3 mg (N = 4),1 (25.0) n (%)
same,TEAE Dizziness,3 mg (N = 4),0 n (%)
same,TEAE Hyperhidrosis,3 mg (N = 4),0 n (%)
same,TEAE Hyperlipidaemia,3 mg (N = 4),0 n (%)
same,TEAE Insomnia,3 mg (N = 4),0 n (%)
same,TEAE Pollakiuria,3 mg (N = 4),0 n (%)
same,TEAE Procedural anxiety,3 mg (N = 4),1 (25.0) n (%)
same,TEAE Salivary hypersecretion,3 mg (N = 4),0 n (%)
same,TEAE Vascular access site injury,3 mg (N = 4),1 (25.0) n (%)
same,TEAE Vessel puncture site bruise,3 mg (N = 4),1 (25.0) n (%)
same,TEAE by Highest Relationship: Not Related,3 mg (N = 4),2 (50.0) n (%)
same,TEAE by Highest Relationship: Related,3 mg (N = 4),0 n (%)
same,TEAE by Highest Severity: Mild,3 mg (N = 4),2 (50.0) n (%)
same,TEAE by Highest Severity: Moderate,3 mg (N = 4),0 n (%)
same,TEAE by Highest Severity: Severe,3 mg (N = 4),0 n (%)
same,AE Leading to Study Drug Discontinuation,3 mg (N = 9),0 n (%)
same,Any SAEs,3 mg (N = 9),0 n (%)
same,Any TEAE,3 mg (N = 9),5 (55.6) n (%)
same,Death,3 mg (N = 9),0 n (%)
same,TEAE Anaemia,3 mg (N = 9),0 n (%)
same,TEAE Application site dermatitis,3 mg (N = 9),0 n (%)
same,TEAE Back pain,3 mg (N = 9),0 n (%)
same,TEAE Blood pressure increased,3 mg (N = 9),0 n (%)
same,TEAE Bruxism,3 mg (N = 9),0 n (%)
same,TEAE Decreased appetite,3 mg (N = 9),0 n (%)
same,TEAE Dehydration,3 mg (N = 9),0 n (%)
same,TEAE Dermatitis contact,3 mg (N = 9),2 (22.2) n (%)
same,TEAE Dizziness,3 mg (N = 9),0 n (%)
same,TEAE Haemoglobin decreased,3 mg (N = 9),0 n (%)
same,TEAE Headache,3 mg (N = 9),0 n (%)
same,TEAE Hyperhidrosis,3 mg (N = 9),0 n (%)
same,TEAE Hyperlipdaemia,3 mg (N = 9),0 n (%)
same,TEAE Insomnia,3 mg (N = 9),0 n (%)
same,TEAE Middle Insomnia,3 mg (N = 9),1 (11.1) n (%)
same,TEAE Nausea,3 mg (N = 9),0 n (%)
same,TEAE Pollakiuria,3 mg (N = 9),2 (22.2) n (%)
same,TEAE Salivary hypersecretion,3 mg (N = 9),1 (11.1) n (%)
same,TEAE Sinus tachycardia,3 mg (N = 9),0 n (%)
same,TEAE Vascular access site injury,3 mg (N = 9),1 (11.1) n (%)
same,TEAE Vessel puncture site bruise,3 mg (N = 9),1 (11.1) n (%)
same,TEAE Vessel puncture site pain,3 mg (N = 9),0 n (%)
same,TEAE by Highest Relationship: Not Related,3 mg (N = 9),2 (22.2) n (%)
